Results published in US20020045780A1, “Biologically active spermidine analogues, pharmaceutical compositions and methods of treatment” (priority 1997, published 2002).
“Also recorded” adds a separate entry of the source. Where a name gives a salt, the structure may show the parent alone. Read-outs that look alike come from different tables or passages of the source.

Assays:
L1210 cells [1] = assay: Metabolic transformation of polyamine analogues by L1210 cells; type: in vitro ADME, murine; conditions: 48 hours
Protocol: (§1) The cells were washed twice with cold RPMI-1640, and the pellet was treated with 0.6 N HClO4 (1 ml/10^7 cells). Polyamine contents of the perchloric acid extracts were quantitated by HPLC of the DANSYL derivatives [Bergeron et al, J. Med. Chem., Vol. 37, supra].

[2] = test system: ornithine decarboxylase (ODC); assay: ODC activity in treated L1210 cells; type: cell-based, murine; conditions: L1210, 1 μM at 4 hours
Protocol: (§2) On the basis of these studies, it was elected to evaluate the impact of the triamines on ODC and AdoMetDC at 4 and 6 hours, respectively.
(§3) ODC and AdoMetDC activities were determined as ^14CO2 released from [^14C]-carboxyl-labeled L-ornithine [Seely et al, “Ornithine Decarboxylase (Mouse Kidney),” Methods Enzymol., Vol. 94, pages 158-161 (1983)] or S-adenosyl-L-methionine [Pegg et al, “S-Adenosylmethionine Decarboxylase (Rat Liver),” Methods Enzymol., Vol. 94, pages 234-239 (1983)], respectively. Included in each assay were untreated L1210 cells as controls, as well as cells treated with DEHSPM, a drug having a known reproducible effect on each enzyme, as positive controls.

[3] = test system: polyamine transport apparatus; assay: Competitive uptake determination: inhibition of [3H]spermidine transport into L1210 cells; type: cell-based, murine; conditions: analogue inhibition of spermidine transport
Protocol: The ability of the norspermidines, spermidines, homospermidines, 4,5- and 5,5-triamines to compete with radiolabeled SPD for uptake was evaluated (Table 1). The general trend is that the terminally alkylated triamines have higher Ki values than the unalkylated triamines and are thus less easily taken up by the cell. […] This is not completely true with the norspermidines and the 5,5 triamines. The relationship holds with methyl and ethyl but not for the propyl of the latter two systems. Finally, the number of methylenes separating the amines plays a role in determining polyamine uptake properties. In general the effectiveness with which the analogues compete for uptake is spermidines≈homospermidines>4,5 triamines>5,5 triamines>norspermidine.
The polyamine derivatives were studied for their ability to compete with [^3H]-SPD for uptake into L1210 cells [Bergeron et al, J. Med. Chem., Vol. 37, supra]. Lineweaver-Burk plots indicated a simple competitive inhibition with respect to SPD.

[4] = test system: spermidine/spermine acetyltransferase (SSAT); assay: SSAT activity in treated L1210 cells; type: cell-based, murine; conditions: L1210, 10 μM at 48 hours (triamine analogues)
Excerpt: Spermidine/spermine N^1-acetyltransferase activity was based on quantitation of [^14C]-N^1-acetylspermidine formed by acetylation of SPD with [^14C] acetyl coenzyme A according to the method of Libby et al [Biochem. Pharmacol., Vol. 38, supra]. Cells treated with DENSPM were positive controls.

[5] = test system: S-adenosylmethionine decarboxylase (AdoMetDC); assay: AdoMetDC activity in treated L1210 cells; type: cell-based, murine; conditions: L1210, 1 μM at 6 hours
Protocol: as §2, §3

L1210 cells [6] = assay: Polyamine pool analysis in L1210 cells; type: cell-based, murine; conditions: for activity at 100 µM / activity at 500 µM: Mus musculus, L1210, 48 h, % of untreated control; for Analogue: intracellular amount, 48 hours
Protocol: The following guidelines were adopted for studying the impact of the analogues on polyamine pools (Table 2). The measurements were made after a 48-hour exposure to the analogue, and two different concentrations of analogue were evaluated in each case.
as §1

L1210 cells [7] = assay: L1210 growth inhibition, IC50 determination; type: cell-based, murine; conditions: Mus musculus
Protocol: Murine L1210 leukemia cells (ATCC CCL 219) were maintained in logarithmic growth in RPMI-1640 medium containing 10% fetal calf serum or a semi-synthetic equivalent, NuSerum, 2% HEPES-MOPS buffer and 1 mM aminoguanidine.

[8] = L1210, 48 h, L1210, 48 hour exposure, read-out: IC50 48 hour
[9] = L1210, 96 h, L1210, 96 hour exposure, read-out: IC50 96 hour

SMILES | Parent drug as % of total drug in the cell (L1210 cells [1]; 100 μM analogue) [%] | Parent drug in L1210 cells (L1210 cells [1]; 100 μM analogue) [pmols/10^6] | Elaboration to tetraamine (result in words) (L1210 cells [1]; 100 μM analogue, listed as N8-ME-[4,3], Trihydrochloride) | ODC activity, percent of untreated control [2] | Ki [3] [µM] | SSAT activity, percent of untreated control [4] | AdoMetDC activity, percent of untreated control [5] | activity at 100 µM (L1210 cells [6]; 100 μM, read-out: Put) [%] | activity at 100 µM (L1210 cells [6]; 100 μM, read-out: Spd) [%] | activity at 100 µM (L1210 cells [6]; 100 μM, read-out: Spm) [%] | activity at 500 µM (L1210 cells [6]; 500 μM, read-out: Put) [%] | activity at 500 µM (L1210 cells [6]; 500 μM, read-out: Spd) [%] | activity at 500 µM (L1210 cells [6]; 500 μM, read-out: Spm) [%] | Analogue (L1210 cells [6]; 100 μM) [nmol/10^6 cells] | Analogue (L1210 cells [6]; 500 μM) [nmol/10^6 cells] | IC50 (L1210 cells [7]; [8]) [µM] | IC50 (L1210 cells [7]; [9]) [µM] | Parent drug as % of total drug in the cell (L1210 cells [1]; 500 μM analogue) [%] | Parent drug in L1210 cells (L1210 cells [1]; 500 μM analogue) [pmols/10^6] | N-Monodealkylation (result in words) (L1210 cells [1]; 100 μM analogue)
CCNCCCCNCCCN [MESPD(N8), N^8-Ethylspermidine Trihydrochloride] | 99.4 | 4825 | no evidence of a tetraamine elaboration metabolite; also recorded: no elaboration of N8-Alkyl [4,3] | 17% of untreated control | 7 | 400% of untreated control | 54% of untreated control | 0 | 26 | 84 | 0 | 15 | 61 | 4.41 | 4.96 | > 100 | 40 |  |  | 
CCNCCCNCCCNCC [DENSPD, N^1,N^7-Diethylnorspermidine Trihydrochloride] |  |  |  | 80% of untreated control | 250 | 780% of untreated control | 45% of untreated control | 0 | 17 | 74 | 0 | 6 to 15 | < 50 | 3.67 | 3.77 | > 100 | 10 | 90.7 | 3761 | 
CNCCCCNCCCCNC [DMHSPD, N^1,N^9-Dimethylhomospermidine Trihydrochloride] | 100 | 5500 |  | 20% of untreated control | 5.5 | 510% of untreated control | 86% of untreated control | 0 | 3 | 106 | 0 | 0 | 106 | 5.51 | 5.85 | > 100 | 0.9 |  |  | no N-demethylation
CCCNCCCNCCCNCCC [DPNSPD, N^1,N^7-Dipropylnorspermidine Trihydrochloride] | 57.7 | 404 |  | 100% of untreated control | 125 | 220% of untreated control | 99% of untreated control | 70 | 76 | 96 | 68 | 71 | 102 | 0.49 | 1.24 | > 100 | 60 |  |  | 
